Data reported in US9499614B2, “Methods for modulating protein glycosylation profiles of recombinant protein therapeutics using monosaccharides and oligosaccharides” (AbbVie, Inc., priority 2013, dated 2016).
Where “and” joins values, the source holds several entries; their conditions need not be identical. Equal entries are not always repeated.

What was measured:
Type in all cases: cell-based, Chinese Hamster
[1] = tested on: Cell Line 1; test: N-glycan oligosaccharide profiling, Cell Line 1 (Antibody 1) shake flasks (Example 2)
Experimental: (§1) Two recombinant Chinese Hamster Ovary (CHO) cell lines expressing two different recombinant glycoproteins were evaluated in two different cultures vessels (shaker flasks and 3 L laboratory scale bioreactors). Cell Line 1 expressed Antibody 1, Cell Line 2 expressed Dual Variable Domain Immunoglobulin 1 (DVD 1) and Cell Line 3 expressed Antibody 2. Antibodies 1 and 2 are IgG1 proteins, and DVD 1 is an immunoglobulin with two variable domains as documented previously (Wu C. et al., (2007) Nat. Biotechnol 25(11):1290-1297). All cell lines were of CHO DUX-B11 origin based on a dhfr (dihydrofolate reductase) expression system. All cell lines were cultured in the same chemically defined basal media. Cell lines 1 and 2 were fed with the same chemically-defined feed media, but Cell Line 1 was fed media that was formulated at a 50% higher concentration. Each of the respective media were supplemented with either sucrose or tagatose to evaluate their potential impact on the resulting N-glycan oligosaccharide profile. All sugars were purchased from Sigma-Aldrich (St. Louis, Mo.). In preparation of the cultures, the cell lines were serially expanded through separate seed train inoculums to generate enough cells for inoculation.
(§2) Purified antibodies subjected to additional analytical characterization were purified using MabSelect™ Protein A (GE Healthcare, Piscataway, N.J.) using a low pH, step elution gradient, followed by buffer exchange using Corning Lifesciences (Tewksbury, Mass.) Spin Concentrator X UF columns according to the manufacturers' recommended procedures.
(§3) Approximately 200 μg of Protein A purified samples from Cell Lines 1 and 2 were treated with N-glycanase at 37° C. overnight to remove the N-glycans from the protein. The protein was precipitated and the supernatant was taken for subsequent chemical derivatization of the reducing end of the released glycans with 2-aminobenzamide (2-AB) dye. Following the derivatization step, the excess label was removed using clean up cartridges and the samples were analyzed using normal phase HPLC with fluorescent detection. Mobile phase A was 100% acetonitrile and mobile phase B was 50 mM ammonium formate pH 4.4. The glycans were eluted from a polyamide column (Prozyme, Hayward, Calif.) using a shallow gradient. The labeled glycans were detected using a fluorescence detector with an excitation wavelength of 330 nm and an emission wavelength of 420 nm.
(§4) Experimental results are expressed as mean±SD for those results generated from at least three independent cultures. Experimental results are expressed as the measured value for those results generated from less than three independent cultures. Results were evaluated for statistical significance through 2-sided t-tests, with a requirement of p<0.05 relative to the unsupplemented control conditions.
Cell Line 1 was cultured in shake flasks in fedbatch mode after an abbreviated seed train. Sucrose and tagatose were supplemented into chemically-defined basal and feed media at concentrations of 1, 10, 30, 50, and 70 mM, and compared to unsupplemented control conditions. The viable cell density (VCD), viability, and harvest titer results are shown in FIGS. 13A-13C for the sucrose supplemented cultures and FIGS. 14A-14C for the tagatose supplemented cultures.

[2] = tested on: Cell Line 2; test: Shake flask fed batch culture of Cell Line 2 (DVD 1), cell culture performance (Example 2); settings: for viable cell density over time: 1, 30 and 50 mM vs control
Experimental: as §1
(§5) Viable cell density (VCD) and cell viability values were measured through trypan blue exclusion via Cedex automated cell counters (Roche Applied Science, Indianapolis, Ind.), glucose and lactate values were measured with a ABL-805 (Radiometer Medical, Denmark) blood gas analyzer. Offline pH, dissolved oxygen (DO), and pCO2 measurements were performed with an ABL-805 (Radiometer Medical, Denmark) blood gas analyzer. Osmolality was measured on a Multi-Osmette 2430 osmometer (Precision Systems, Natick, Mass.).
(§6) Antibody titers were measured from crude cell culture harvests on a Poros A™ (Life Technologies, Carlsbad, Calif.) affinity column using an Agilent (Santa Clara, Calif.) 1200 Series HPLC, or equivalent, operating with a low pH, step elution gradient with detection at 280 nm. Absolute concentrations were assigned with respect to reference standard calibration curves.
as §4
(§7) Cell Line 2 was cultured in shake flasks in fed batch mode after an abbreviated seed train. Sucrose and tagatose were supplemented into chemically-defined basal and feed media at concentrations of 1, 30, and 50 mM, and process performance results were compared to unsupplemented control conditions. The viable cell density (VCD), viability, and harvest titer results are shown in FIGS. 15A-15C for the sucrose supplemented cultures and FIGS. 16A-16C for the tagatose supplemented cultures.

[3] = tested on: Cell Line 1; test: Shake flask fedbatch culture of Cell Line 1, cell culture performance (Example 1)
Experimental: Two recombinant Chinese Hamster Ovary (CHO) cell lines expressing two different humanized monoclonal antibodies (Antibody 1, Antibody 2) were evaluated in two different culture vessels (shaker flasks and laboratory scale bioreactors). Both cell lines were of CHO DUX-B11 origin based on a dhfr (dihydrofolate reductase) expression system. Both cell lines were cultured in the same chemically defined basal media (CDBM), with Cell Line 1 also utilizing a chemically-defined feed media (CDFM). Each of the respective media were supplemented with selected monosaccharides and oligosaccharides to evaluate their potential impact on the resulting N-glycan oligosaccharide profile. In preparing the cultures, the cell lines were serially expanded through separate seed train inoculums to generate enough cells for inoculation.
as §5, with “with a” for “with an”
as §6
Cell Line 1 was cultured in shake flasks in fedbatch mode after an abbreviated seed train. Sucrose and tagatose were supplemented into chemically-defined basal and feed media at concentrations of 30, 50, and 70 mM, and compared to an unsupplemented control condition. The viable cell density (VCD), viability, and harvest titer results are shown in FIGS. 3A-3C and FIGS. 5A-5C for the sucrose, and tagatose conditions, respectively. Both sugars facilitated a slight decrease in VCD, with the higher concentrations also supporting the lowest peak VCD. […] As such, the upper threshold of sucrose or tagatose concentration should not be exceeded.

[4] = tested on: Cell Line 2; test: N-glycan oligosaccharide profiling, Cell Line 2 (DVD 1) shake flasks (Example 2); settings: 50 mM supplement vs control
Experimental: as §1, §2, §3, §4, §7

SMILES	cumulative increase in overall mannosylated N-glycans ([1]; 70 mM supplement vs control) [%]	drop in NGA2F species ([1]; 70 mM supplement vs control) [%]	increase in Man 5 species ([1]; 70 mM supplement vs control) [%]	increase in Man 6 species ([1]; 70 mM supplement vs control) [%]	increase in Man 7 species ([1]; 70 mM supplement vs control) [%]	increase in Man 8 species ([1]; 70 mM supplement vs control) [%]	increase in NGA2F-GlcNAc species ([1]; 70 mM supplement vs control) [%]	overall decrease in the fucosylation level ([1]; 70 mM supplement vs control) [%]	harvest titer reduction ([2]; 50 mM vs control) [%]	viable cell density over time [2]	Harvest titer (adverse impact) ([3]; 30 mM supplement vs control)	Harvest titer (adverse impact) ([3]; 50 mM supplement vs control)	Harvest titer (adverse impact) ([3]; 70 mM supplement vs control)	cumulative increase in overall mannosylated N-glycans [4] [%]	decrease in NA1F species [4] [%]	decrease in NGA2F species [4] [%]	increase in NGA2F-GlcNAc species [4] [%]	overall decrease in the fucosylation level [4] [%]	also measured
OC[C@H]1O[C@@](CO)(O[C@H]2O[C@H](CO)[C@@H](O)[C@H](O)[C@H]2O)[C@@H](O)[C@@H]1O [sucrose]	37	44	19	10	6	2	8	37	48	remained approximately the same	did not adversely impact titer	did not adversely impact titer	reduce the harvest titer significantly	8	1	20	8	13	decrease in NA1F species ([1]; 70 mM supplement vs control): 1%; overall N-glycan core fucosylation ([1]; 10, 30, 50 and 70 mM): decreased in a statistically significant manner; reduction in peak VCD ([2]; 50 mM vs control): at most 2×10^6 cells/mL; cell viability ([3]; 70 mM supplement vs control): decrease in cell viability that was larger, and earlier in the culture; increase in Man 5 species [4]: 7% and 3%; increase in Man 6 species [4]: 1%
O=C(CO)[C@@H](O)[C@@H](O)[C@H](O)CO [tagatose]	15	23	8	4	2	1	8	15	38	slightly higher compared to the control	did not adversely impact harvest titer	did	did	4	1	9	5	5	N-glycan profiles compared to the control culture ([1]; 1, 10 and 30 mM): not practically different compared to the control culture; relative harvest titer ([2]; 1 mM vs control): did not adversely impact relative harvest titer; viability after Day 8 ([2]; 30 mM and 50 mM vs control): remained higher than the control; harvest titer decrease ([2]; 30 mM vs control): 15%
